Experimental data as given in patent publication US20220213061A9, “HETEROCYCLIC COMPOUNDS FOR MODULATING NR2F6” (TES Pharma S.r.l., priority 2020, published 2022).
Where a name gives a salt, the structure may show the parent alone.

Biological target: T1, recombinant human NR2F6 protein (Homo sapiens, UniProt P10588)
T1 sequence (P10588 1-404): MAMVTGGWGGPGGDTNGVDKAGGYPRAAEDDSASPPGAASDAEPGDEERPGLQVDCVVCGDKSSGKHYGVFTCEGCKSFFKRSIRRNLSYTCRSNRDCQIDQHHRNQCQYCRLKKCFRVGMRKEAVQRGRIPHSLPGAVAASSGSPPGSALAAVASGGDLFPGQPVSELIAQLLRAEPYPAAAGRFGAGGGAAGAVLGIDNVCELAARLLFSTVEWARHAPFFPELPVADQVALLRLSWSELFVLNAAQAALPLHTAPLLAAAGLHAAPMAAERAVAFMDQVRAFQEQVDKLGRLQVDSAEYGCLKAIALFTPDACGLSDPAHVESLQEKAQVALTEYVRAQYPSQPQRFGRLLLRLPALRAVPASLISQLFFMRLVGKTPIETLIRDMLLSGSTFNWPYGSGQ
Assay: Biochemical NR2F6 binding assay (EnSpire label-free)
Conditions: label-free binding to immobilized purified recombinant human NR2F6; ligands 1 nM to 100 uM, 1% DMSO
Method: Purified recombinant human NR2F6 protein was dissolved in immobilization buffer at pH 4.5 and then immobilized in EnSpire-LFB High-Sensitivity User-Activated Plates at the concentration of 50 μg/well plate and left in incubation for 16 h at 4° C. Wells with only immobilization buffer were used as negative control to check the protein coating efficiency. NR2F6 ligands were resuspended in DMSO at the concentration of 10 mM, then dispensed into a plate containing assay buffer at concentrations ranging from 1 nM to 100 uM using an HP-dispenser. DMSO was normalized at the 1% of volume of each well. The final readings were taken over a period of 30 minutes. The label-free responses were measured as shifts in reflected wavelength and are expressed in picometers (pm). Results were analyzed using the EnSpire label-free user interface software, and EC50 and graphs were generated using GraphPad PRISM software. In the tables below, A is <1 μM; B is 1 to 10 μM; C is 10 to 50 μM; and D is >50 μM.

Row | SMILES | EC50 [µM]
1 | O=C(Nc1cccc2cccnc12)[C@@H]1CNC[C@H]1c1ccccc1 (racemic) [Compound I-18, (±)-trans-4-Phenyl-N-(quinolin-8-yl)pyrrolidine-3-carboxamide dihydrochloride] | 10 to 50
2 | O=C(N[C@@H]1CNC[C@H]1c1ccccc1)c1cccc2cnccc12 (racemic) [Compound I-9, (±)-trans-N-(4-Phenylpyrrolidin-3-yl)isoquinoline-5-carboxamide] | 1 to 10
3 | O=C(Nc1cccnc1)[C@H]1CNC[C@@H]1c1ccccc1 (racemic) [Compound I-19, (±)-trans-4-Phenyl-N-(pyridin-3-yl)pyrrolidine-3-carboxamide dihydrochloride] | > 50
4 | O=C(Nc1nccc2ccccc12)[C@@H]1CNC[C@H]1c1ccccc1 (racemic) [Compound I-12, (±)-trans-N-(Isoquinolin-1-yl)-4-phenylpyrrolidine-3-carboxamide dihydrochloride] | > 50
5 | O=C(Nc1cccc(-c2ccccc2)c1)[C@@H]1CNC[C@H]1c1cccc(F)c1 (racemic) [Compound I-27, (±)-trans-N-(Biphenyl-3-yl)-4-(3-fluorophenyl)pyrrolidine-3-carboxamide hydrochloride] | > 50
6 | O=C(Nc1cccc(-c2cccnc2)c1)[C@@H]1CNC[C@H]1c1ccccc1 (racemic) [Compound I-11, (±)-trans-4-Phenyl-N-[3-(pyridin-3-yl)phenyl]pyrrolidine-3-carboxamide] | 1 to 10
7 | O=C(Nc1cccc(-c2ccc(F)nc2)c1)[C@@H]1CNC[C@H]1c1ccccc1 (racemic) [Compound I-26, (±)-trans-N-[3-(6-Fluoropyridin-3-yl)phenyl]-4-phenylpyrrolidine-3-carboxamide] | 1 to 10
8 | O=C(Nc1cc2ccccc2cn1)[C@@H]1CNC[C@H]1c1ccccc1 (racemic) [Compound I-14, (±)-trans-N-(Isoquinolin-3-yl)-4-phenylpyrrolidine-3-carboxamide dihydrochloride] | 1 to 10
9 | Cc1cc2c(NC(=O)[C@@H]3CNC[C@H]3c3ccccc3)cccc2cn1 (racemic) [Compound I-15, (±)-trans-N-(3-Methylisoquinolin-5-yl)-4-phenylpyrrolidine-3-carboxamide dihydrochloride] | 1 to 10
10 | CN1CCC(CNC(=O)[C@H]2CNC[C@@H]2c2ccccc2)CC1 [Compound I-35, (3R,4S)—N-[(1-Methylpiperidin-4-yl)methyl]-4-phenylpyrrolidine-3-carboxamide dihydrochloride] | > 50
11 | O=C(Nc1ccc(-c2cccnc2)cc1)[C@@H]1CNC[C@H]1c1ccccc1 (racemic) [Compound I-25, (±)-trans-4-Phenyl-N-[4-(pyridin-3-yl)phenyl]pyrrolidine-3-carboxamide dihydrochloride] | 1 to 10
12 | O=C(Nc1cccc2ncccc12)[C@@H]1CNC[C@H]1c1ccccc1 (racemic) [Compound I-17, (±)-trans-4-Phenyl-N-(quinolin-5-yl)pyrrolidine-3-carboxamide dihydrochloride] | 10 to 50
13 | O=C(Nc1ncc(-c2cccnc2)s1)[C@@H]1CNC[C@H]1c1ccccc1 (racemic) [Compound I-20, (±)-trans-4-Phenyl-N-[5-(pyridin-3-yl)-1,3-thiazol-2-yl]pyrrolidine-3-carboxamide] | 1 to 10
14 | S=C(Nc1cccc2cnccc12)N[C@@H]1CN(Cc2ccccc2)C[C@H]1c1ccccc1 (racemic) [Compound I-6, (±)-trans-1-Isoquinolin-5-yl-3-(1-benzyl-4-phenylpyrrolidin-3-yl)thiourea] | 1 to 10

Further lines, results first:

Row | EC50 [µM] | SMILES
15 | < 1 | O=C(Nc1cccc(Nc2cccnc2)c1)[C@H]1CNC[C@@H]1c1ccccc1 (racemic) [Compound I-106, (±)-trans-4-Phenyl-N-[3-(pyridin-3-ylamino)phenyl]pyrrolidine-3-carboxamide dihydrochloride]
16 | 1 to 10 | O=C(Nc1cccc(-c2ccccc2)c1)[C@@H]1CNC[C@H]1c1ccccc1 [Compound I-42, (3S,4R)—N-(Biphenyl-3-yl)-4-phenylpyrrolidine-3-carboxamide hydrochloride]
17 | < 1 | N#Cc1ccc(N2CCC(NC(=O)[C@@H]3CNC[C@H]3c3ccccc3)CC2)cc1 [Compound I-122, (3S,4R)-3-{[1-(4-Cyanophenyl)lpiperidin-4-yl]carbamoyl]}-4-phenylpyrrolidine dihydrochloride]
18 | > 50 | CN1C[C@@H](C(=O)Nc2cccc(-c3cccnc3)c2)[C@H](c2ccccc2)C1 (racemic) [Compound I-46, (±)-trans-1-Methyl-4-phenyl-N-[3-(pyridin-3-yl)phenyl]pyrrolidine-3-carboxamide]
19 | 1 to 10 | O=C(Nc1ccc(-c2cccnc2)cc1)[C@@H]1CNC[C@H]1c1ccccc1 [Compound I-41, (3S,4R)-4-Phenyl-N-[4-(pyridin-3-yl)phenyl]pyrrolidine-3-carboxamide dihydrochloride]
20 | 1 to 10 | O=C(Nc1cccc(-c2cccnc2)c1)[C@@H]1CN(Cc2ccccc2)C[C@H]1c1ccccc1 (racemic) [Compound I-63, (±)-trans-1-Benzyl-4-phenyl-N-[3-(pyridin-3-yl)phenyl]pyrrolidine-3-carboxamide]
21 | > 50 | O=C(Nc1cccc2ocnc12)[C@H]1CNC[C@@H]1c1ccccc1 (racemic) [Compound I-76, (±)-trans-N-(1,3-Benzoxazol-4-yl)-4-phenylpyrrolidine-3-carboxamide dihydrochloride]
22 | 1 to 10 | O=C(Nc1cccc(Nc2ccccc2)c1)[C@@H]1CNC[C@H]1c1ccccc1 [Compound I-114, (3S,4R)-4-Phenyl-N-[3-(phenylamino)phenyl]pyrrolidine-3-carboxamide hydrochloride]
23 | 1 to 10 | O=C(NC1CCN(c2ccccc2)CC1)[C@@H]1CNC[C@H]1c1ccccc1 [Compound I-123, (3S,4R)-3-[(l-Phenylpiperidin-4-yl)carbamoyl]-4-phenylpyrrolidine dihydrochloride]
24 | 1 to 10 | O=C(Nc1cccc2ccccc12)[C@@H]1CNC[C@H]1c1ccc(C(F)(F)F)cc1 [Compound I-110, (3S,4R)—N-(Naphthalen-1-yl)-4-[4-(trifluoromethyl)phenyl]pyrrolidine-3-carboxamide hydrochloride]
25 | 1 to 10 | O=C(Nc1cccc(-c2ccccc2)c1)[C@H]1CNC[C@@H]1c1ccccc1 [Compound I-37, (3R,4S)—N-(Biphenyl-3-yl)-4-phenylpyrrolidine-3-carboxamide hydrochloride]
26 | 1 to 10 | O=C(N[C@H]1C[C@H](c2ccccc2)C1)[C@@H]1CNC[C@H]1c1ccccc1 [Compound I-117, (3S,4R)-4-Phenyl-N-(trans-3-phenylcyclobutyl)pyrrolidine-3-carboxamide hydrochloride]
27 | 10 to 50 | O=C(N[C@H]1C[C@H](Oc2cccnc2)C1)[C@H]1CNC[C@@H]1c1ccccc1 (racemic) [Compound I-101, (±)-trans-N-[trans-3-(Pyridyn-3-yloxy)cyclobutyl]-4-phenylpyrrolidine-3-carboxamide dihydrochloride]
28 | > 50 | O=C(Nc1cccc(-c2cccnc2)c1)[C@@H]1CN(C2CCOCC2)C[C@H]1c1ccccc1 (racemic) [Compound I-54, (±)-trans-4-Phenyl-N-[3-(pyridin-3-yl)phenyl]-1-(tetrahydro-2H-pyran-4-yl)pyrrolidine-3-carboxamide]
29 | > 50 | O=C(Nc1cccc2cnccc12)[C@@H]1CNC[C@@H]1c1ccccc1 [Compound I-66, (3S,4S)—N-(Isoquinolin-5-yl)-4-phenylpyrrolidine-3-carboxamide dihydrochloride]
30 | > 50 | O=C(Nc1cccc2cnccc12)N1CCC(c2ccccc2)C1 (stereo not shown) [Compound I-79, N-(Isoquinolin-5-yl)-3-phenylpyrrolidine-1-carboxamide]
31 | 1 to 10 | O=C(Nc1cc2ccccc2cn1)[C@H]1CNC[C@@H]1c1ccccc1 [Compound I-38, (3R,4S)—N-(Isoquinolin-3-yl)-4-phenylpyrrolidine-3-carboxamide dihydrochloride]
32 | 1 to 10 | O=C(Nc1cccc(Cc2ccccc2)c1)[C@@H]1CNC[C@H]1c1ccccc1 (racemic) [Compound I-85, (±)-trans-N-(3-Benzylphenyl)-4-phenylpyrrolidine-3-carboxamide hydrochloride]
33 | 1 to 10 | O=C(Nc1cccc(Oc2ccc(C(F)(F)F)nc2)c1)[C@H]1CNC[C@@H]1c1ccccc1 [Compound I-119, 3R,4S)-4-Phenyl-N-(3-{[6-(trifluoromethyl)pyridin-3-yl]oxy}phenyl) pyrrolidine-3-carboxamide dihydrochloride]
34 | < 1 | O=C(Nc1cccc(-c2cccnc2)c1)[C@@H]1CN(c2ccccc2)C[C@H]1c1ccccc1 (racemic) [Compound I-62, (±)-trans-1,4-Diphenyl-N-[3-(pyridin-3-yl)phenyl]pyrrolidine-3-carboxamide]
